Laboratory results published in patent US20220153732A1, “PROTEIN SECRETION INHIBITORS” (KEZAR LIFE SCIENCES, priority 2019, published 2022).

Assays:
Format in all cases: cell-based
[1] = system: HER3-ss+4aa/Gaussia Luciferase; assay: Dox-Induced Her3-ss-Gluc Assay; details: 24 hr, doxycycline-induced, 293FRT/TO cells; read-out: 24 hr Dox Inducible Her3(ss + 4)Gluc 293FRT/TO: Mean IC50
Method in brief: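 Stable T-REx cell line carrying a doxycycline-regulated HER3-ss+4aa/Gaussia luciferase insert, plated the day before assay. Compound dilutions in DMSO/media with doxycycline added, then incubated at 37° C., 5% CO2. Stereoisomer mixtures tested where stereochemistry is not drawn.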

[2] = system: PD1-ss+10aa/Gaussia Luciferase; assay: Dox-Induced PD1-ss-Gluc Assay; details: 24 hr, doxycycline-induced, 293FRT/TO cells; read-out: 24 hr Dox Inducible PD1ssGluc 293FRT/TO: Mean IC50
Method in brief: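 Stable cell line carrying PD1-ss+10aa/Gaussia luciferase cDNA under T-REx (doxycycline-inducible) control, plated the day before assay. Compound dilutions in DMSO/media containing doxycycline added and incubated at 37° C, 5% CO2. Undefined stereocentres: data refer to stereoisomer mixtures.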

[3] = system: human multiple myeloma cell line U266B1; assay: U266 Cell Viability Assay; details: U-266, 48 hr, U266B1 cells, Celltiter-Glo, read-out: 48 hr U266 Viability Celltiter-Glo: Mean EC50
Method in brief: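 U266B1 myeloma cells treated with compound dilutions in DMSO/media for 48 h at 37 °C, 5% CO2. Viability read by CellTiter-Glo luminescence. Stereochemically undefined structures were tested as stereoisomer mixtures.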

[4] = system: TNFα-FL/Gaussia Luciferase; assay: Dox Induced TNFα-FL-Gluc Assay; details: 24 hr, doxycycline-induced, 293FRT/TO cells; read-out: 24 hr Dox Inducible TNFaFLGluc 293FRT/TO: Mean IC50
Method in brief: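 A stable T-REx cell line carrying doxycycline-inducible TNFα-FL/Gaussia luciferase was plated the day before assay. Compound dilutions in DMSO/media containing doxycycline were then added and incubated at 37° C, 5% CO2.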

[5] = system: human multiple myeloma cell line NCI-H929; assay: H929 Cell Viability Assay; details: 48 hr, NCI-H929 cells, Celltiter-Glo, read-out: 48 hr H929 Viability Celltiter-Glo: Mean EC50
Method: Plates were incubated at 37° C., 5% CO2 for 48 hours. After 48 hours, Celltiter-Glo® (Promega) was added to each well and luciferase signal was quantified using Tecan Infinite M1000 Pro for cell viability determination.
For chemical structures that include one or more stereoisomers, but are illustrated without indicating stereochemistry, the assay data refers to a mixture of stereoisomers.

[6] = system: IL-2-FL/Gaussia Luciferase; assay: Dox Induced IL2-FL-Gluc Assay; details: 24 hr, doxycycline-induced, 293FRT/TO cells; read-out: 24 hr Dox Inducible IL2FLGIuc 293FRT/TO: Mean IC50
Method in brief: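 Stable T-REx cell line expressing doxycycline-inducible IL-2-FL/Gaussia luciferase cDNA, plated the day before assay. Compound dilutions in DMSO/media containing doxycycline added and incubated at 37° C., 5% CO2. Unspecified stereochemistry means data refer to a stereoisomer mixture.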

Structure (SMILES)	IC50 [1]	IC50 [2]	EC50 [3]	IC50 [4]	EC50 [5]	IC50 [6]
O=C(Nc1nc(/C=C/c2ncc(OC3CCCC3)cc2F)cs1)c1cccn1Cc1ccncc1 [Compound A295]	692 nM	5 nM	18900 nM	3560 nM	18300 nM	846 nM
O=C(Nc1nc(C2COc3ccccc3C2)cs1)c1cccn1Cc1ccncc1 (stereo not drawn) [Compound A296]	1210 nM	655 nM	> 25000 nM	10300 nM	> 25000 nM	1150 nM
Cc1sc(NC(=O)c2cccn2Cc2ccncc2)nc1/C=C/c1ccccc1 [Compound A297]	251 nM	66 nM	> 25000 nM	2820 nM	> 25000 nM	687 nM
O=C(Nc1nc([C@@H]2CCCC[C@@H]2c2ccccc2)cs1)c1cccn1Cc1ccncc1 [Compound A298]	482 nM	260 nM	> 25000 nM	1660 nM	13500 nM	450 nM
COc1cnc(/C=C/c2csc(NC(=O)c3cccn3Cc3ccncc3)n2)c(F)c1 [Compound A299]	214 nM	7 nM	> 25000 nM	> 25000 nM	> 25000 nM	219 nM
O=C(Nc1nc([C@H]2CCC[C@@H]2c2ccccc2)cs1)c1cccn1Cc1ccncc1 [Compound A300, N-(4-((1S,2S)-2-phenylcyclopentyl)thiazol-2-yl)-1-(pyridin-4-ylmethyl)-1H-pyrrole-2-carboxamide]	589 nM	328 nM	> 25000 nM	2420 nM	10500 nM	450 nM
O=C(Nc1nc([C@H]2CCC[C@H]2c2ccccc2)cs1)c1cccn1Cc1ccncc1 [Compound A301, N-(4-((1S,2R)-2-phenylcyclopentyl)thiazol-2-yl)-1-(pyridin-4-ylmethyl)-1H-pyrrole-2-carboxamide]	54 nM	43 nM	> 25000 nM	242 nM	2770 nM	64 nM
O=C(Nc1nc(C2CCN(Cc3ccccc3)CC2)cs1)c1cccn1Cc1ccncc1 [Compound A302]	6170 nM	1980 nM	> 25000 nM	> 25000 nM	> 25000 nM	10600 nM
O=C(Nc1nc(/C=C/c2ccc(OC3CC3)cc2F)cs1)c1cccn1Cc1ccncc1 [Compound A304]	108 nM	20 nM	14300 nM	236 nM	6270 nM	178 nM
O=C(Nc1nc(C2CCCN(c3ccccc3)C2)cs1)c1cccn1Cc1ccncc1 (stereo not drawn) [Compound A306, N-(4-(1-phenylpiperidin-3-yl)thiazol-2-yl)-1-(pyridin-4-ylmethyl)-1H-pyrrole-2-carboxamide]	495 nM	184 nM	> 25000 nM	1790 nM	11200 nM	489 nM
O=C(Nc1nc(/C=C/c2ncccn2)cs1)c1cccn1Cc1ccncc1 [Compound A307]	8810 nM	679 nM	> 25000 nM	> 25000 nM	> 25000 nM	> 25000 nM
CC(C)(OCc1ccc(N=[N+]=[N-])cc1)c1csc(NC(=O)c2cccn2Cc2ccncc2C#N)n1 [Compound A308]	1690 nM	879 nM	> 25000 nM	13500 nM	17200 nM	2370 nM
COc1ccc(O[C@H]2C[C@@H](c3csc(NC(=O)c4cccn4Cc4ccncc4)n3)C2)nc1 [Compound A309]	71 nM	24 nM	14800 nM	721 nM	6110 nM	199 nM
